For 2 molecules, Kd results are on record in paper PMC8262137 (Biochemical pharmacology, 2020).

Each structure is given as a SMILES string.

This test concerns the target P-glycoprotein (Pgp; Abcb1a, MDR3) (Mus musculus, UniProt P21447). In words: intrinsic protein fluorescence quenching. Type of test: binding.

Chain of P-glycoprotein (Pgp; Abcb1a, MDR3) (P21447 whole entry): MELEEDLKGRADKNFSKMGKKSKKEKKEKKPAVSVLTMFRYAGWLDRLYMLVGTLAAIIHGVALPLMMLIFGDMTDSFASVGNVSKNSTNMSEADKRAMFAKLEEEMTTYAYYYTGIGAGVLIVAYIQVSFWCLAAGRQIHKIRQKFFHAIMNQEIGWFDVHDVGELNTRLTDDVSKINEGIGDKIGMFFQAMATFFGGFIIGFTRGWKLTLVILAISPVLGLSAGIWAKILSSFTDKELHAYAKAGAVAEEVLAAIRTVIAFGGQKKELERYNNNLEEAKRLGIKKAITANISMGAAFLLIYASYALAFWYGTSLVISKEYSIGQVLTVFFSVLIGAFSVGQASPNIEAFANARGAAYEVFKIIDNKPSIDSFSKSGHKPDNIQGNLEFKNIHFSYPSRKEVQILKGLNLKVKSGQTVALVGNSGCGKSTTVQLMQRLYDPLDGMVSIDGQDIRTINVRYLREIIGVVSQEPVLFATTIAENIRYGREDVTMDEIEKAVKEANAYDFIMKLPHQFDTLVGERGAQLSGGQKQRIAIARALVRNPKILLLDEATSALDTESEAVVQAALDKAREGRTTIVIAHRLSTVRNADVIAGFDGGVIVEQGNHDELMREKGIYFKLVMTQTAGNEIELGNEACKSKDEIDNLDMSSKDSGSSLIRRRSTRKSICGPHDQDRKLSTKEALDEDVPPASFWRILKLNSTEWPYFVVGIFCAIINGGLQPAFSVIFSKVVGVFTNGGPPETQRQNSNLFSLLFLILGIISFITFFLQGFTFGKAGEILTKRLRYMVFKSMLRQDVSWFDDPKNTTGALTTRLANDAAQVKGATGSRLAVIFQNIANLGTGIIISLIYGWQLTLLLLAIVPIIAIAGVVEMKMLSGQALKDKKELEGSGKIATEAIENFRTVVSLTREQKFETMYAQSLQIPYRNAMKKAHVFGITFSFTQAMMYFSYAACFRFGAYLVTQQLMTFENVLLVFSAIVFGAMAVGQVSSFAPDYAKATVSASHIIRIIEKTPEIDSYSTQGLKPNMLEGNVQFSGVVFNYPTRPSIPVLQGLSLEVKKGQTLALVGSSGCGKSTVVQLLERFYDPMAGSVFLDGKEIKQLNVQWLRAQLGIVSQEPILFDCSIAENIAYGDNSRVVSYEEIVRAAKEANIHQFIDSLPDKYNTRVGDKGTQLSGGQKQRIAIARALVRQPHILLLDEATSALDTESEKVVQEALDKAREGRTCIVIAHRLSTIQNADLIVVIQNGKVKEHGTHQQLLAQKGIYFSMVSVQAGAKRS

By Kd is commonly meant a measure of binding affinity in units of concentration. Read a low Kd as higher affinity. Molecule `COc1cccc2c1C(=O)c1c(O)c3c(c(O)c1C2=O)C[C@@](O)(C(C)=O)C[C@@H]3O[C@H]1C[C@H](N)[C@H](O)[C@H](C)O1` [DNR, daunorubicin] yielded a Kd of 16.3 ± 0.7 µM.

In the case of `COc1cccc2c1C(=O)c1c(O)c3c(c(O)c1C2=O)C[C@@](O)(C(=O)CO)C[C@@H]3O[C@H]1C[C@H](N)[C@H](O)[C@H](C)O1` [DOX, doxorubicin], binding was put at a Kd of 16.9 ± 1.3 µM.
